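A five-concentration, 48-hour dose response in 96-well plates underlies each endpoint, interpolated linearly between surrounding concentrations. At the GI50, growth is halved.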 Calls of active or inactive are those of the source. No stated cut-off is given here; in the data, active = GI50 up to about 1.1 µM and inactive = higher. Non-standard residues stand in square brackets, D forms with d. Residues, ends and D or L forms follow the SMILES beside them. *: point of attachment. Phe(4-NO2) = N[CH](Cc1ccc([N+](=O)[O-])cc1)C(=O)O; Boc = CC(C)(C)OC(=O)*
What was measured:
Experiment in all cases: growth of human tumour cells (NCI), 48 h
U-251 = system: U-251
SK-MEL-2 = system: SK-MEL-2
MDA-MB-435 = system: MDA-MB-435
UO-31 = system: UO-31
COLO 205 = system: COLO 205
SN12C = system: SN12C
Hs-578T = system: Hs-578T
OVCAR-3 = system: OVCAR-3
SW-620 = system: SW-620
HOP-92 = system: HOP-92
HCT-116 = system: HCT-116
SK-MEL-5 = system: SK-MEL-5
SR = system: SR
A549 = system: A549
UACC-62 = system: UACC-62
SF-295 = system: SF-295
LOX IMVI = system: LOX IMVI
NCI/ADR-RES = system: NCI/ADR-RES
NCI-H23 = system: NCI-H23
HT-29 = system: HT-29

Measured: GI50

C/C(=C\c1ccccc1)C(=O)NCc1ccc(C(=O)NCCc2ccccc2)cc1
inactive: U-251 > 51.8 µM | SK-MEL-2 20.9 µM | MDA-MB-435 > 100 µM | UO-31 22 µM | COLO 205 > 100 µM | SN12C 21.2 µM | Hs-578T 7.16 µM | OVCAR-3 > 100 µM | SW-620 > 100 µM | HOP-92 18.4 µM | HCT-116 43.4 µM | SK-MEL-5 > 100 µM | SR > 100 µM | A549 > 100 µM | UACC-62 > 100 µM | SF-295 27.7 µM | LOX IMVI > 100 µM | NCI/ADR-RES > 39.9 µM | NCI-H23 > 52.4 µM | HT-29 2.67 µM

Cc1nc2sc(CCl)nn2c(=O)c1Cl
inactive: U-251 6.08 µM | SK-MEL-2 11.1 µM | MDA-MB-435 4.95 µM | UO-31 14.2 µM | COLO 205 16.7 µM | SN12C 12.3 µM | Hs-578T 19.1 µM | OVCAR-3 15.9 µM | SW-620 10.4 µM | HOP-92 5.7 µM | HCT-116 13.4 µM | SK-MEL-5 5.07 µM | SR 4.61 µM | A549 15.1 µM | UACC-62 14 µM | SF-295 16.6 µM | LOX IMVI 1.92 µM | NCI/ADR-RES 18.8 µM | NCI-H23 17.4 µM | HT-29 12.9 µM

CC1(C)CCC[C@@]2(C)C1CC[C@@]1(CO1)[C@@H]2/C=C\C(C=O)CC=O (stereo partly drawn)
inactive: U-251 > 96.6 µM | SK-MEL-2 > 100 µM | MDA-MB-435 > 100 µM | UO-31 > 94.8 µM | COLO 205 > 91.8 µM | SN12C > 68.1 µM | Hs-578T > 100 µM | OVCAR-3 > 100 µM | SW-620 67.1 µM | HOP-92 > 100 µM | HCT-116 62.2 µM | SK-MEL-5 > 100 µM | SR 37.6 µM | A549 > 100 µM | UACC-62 > 100 µM | SF-295 > 100 µM | LOX IMVI > 67.1 µM | NCI/ADR-RES > 100 µM | NCI-H23 > 100 µM | HT-29 > 56.6 µM

CC(=O)NNc1nc(C)c(C(=O)NNC(=O)C(=O)Nc2nc3ccc([N+](=O)[O-])cc3s2)s1
inactive: U-251 47.5 µM | SK-MEL-2 56.9 µM | MDA-MB-435 60.4 µM | UO-31 33.2 µM | COLO 205 > 81.1 µM | SN12C 68.2 µM | Hs-578T 51.6 µM | OVCAR-3 15.3 µM | SW-620 > 65.9 µM | HOP-92 28.8 µM | HCT-116 > 62.5 µM | SK-MEL-5 42.6 µM | SR 26.4 µM | A549 67.1 µM | UACC-62 51.6 µM | SF-295 60.8 µM | LOX IMVI 54.1 µM | NCI/ADR-RES 53.5 µM | NCI-H23 44.1 µM | HT-29 54.7 µM

O=C(CNC(=O)OCc1ccccc1)NCCCCC(NC(=O)OCc1ccccc1)C(=O)O (stereo not drawn)
inactive: U-251 > 100 µM | SK-MEL-2 > 100 µM | MDA-MB-435 > 100 µM | UO-31 > 100 µM | COLO 205 > 100 µM | SN12C > 100 µM | Hs-578T > 100 µM | OVCAR-3 > 100 µM | SW-620 > 100 µM | HOP-92 > 100 µM | HCT-116 > 100 µM | SK-MEL-5 > 100 µM | SR > 100 µM | A549 > 100 µM | UACC-62 > 100 µM | SF-295 > 100 µM | LOX IMVI > 100 µM | NCI/ADR-RES > 100 µM | NCI-H23 > 100 µM | HT-29 > 100 µM

COc1cc(/C=C2/SC(c3ccccc3)N(Cc3ccccc3)C2=O)cc(OC)c1OC (stereo not drawn)
inactive: U-251 36.7 µM | SK-MEL-2 47.8 µM | MDA-MB-435 53.2 µM | UO-31 40.5 µM | COLO 205 19.8 µM | SN12C 21.5 µM | Hs-578T 40.6 µM | OVCAR-3 33.7 µM | SW-620 63.2 µM | HOP-92 32.8 µM | HCT-116 14.9 µM | SK-MEL-5 12.1 µM | SR 14.2 µM | A549 67 µM | UACC-62 42.5 µM | SF-295 30.6 µM | LOX IMVI 34.8 µM | NCI/ADR-RES 35 µM | NCI-H23 31.6 µM | HT-29 25.9 µM

COCCCNc1c2ccccc2nc2ccccc12
inactive: SK-MEL-2 2.17 µM | MDA-MB-435 3.85 µM | UO-31 2.05 µM | COLO 205 2.11 µM | SN12C 3.24 µM | Hs-578T 2.78 µM | OVCAR-3 2.47 µM | SW-620 2.44 µM | HOP-92 3.58 µM | HCT-116 2.59 µM | SK-MEL-5 2.14 µM | SR 2.86 µM | A549 2.92 µM | UACC-62 2.18 µM | SF-295 3.61 µM | LOX IMVI 2.22 µM | NCI/ADR-RES 3.82 µM | NCI-H23 2.92 µM | HT-29 2.82 µM

Fc1c(F)c(C(F)(F)F)c(F)c(F)c1N/N=C\c1c[nH]c2ccccc12
inactive: U-251 3.23 µM | SK-MEL-2 2.78 µM | MDA-MB-435 1.51 µM | UO-31 1.16 µM | COLO 205 1.28 µM | SN12C 3.13 µM | Hs-578T 8.38 µM | OVCAR-3 1.87 µM | SW-620 3.37 µM | HOP-92 3.61 µM | HCT-116 3.73 µM | SK-MEL-5 1.82 µM | SR 2.75 µM | A549 3.16 µM | UACC-62 2.44 µM | SF-295 2.2 µM | LOX IMVI 3.3 µM | NCI/ADR-RES 2.13 µM | NCI-H23 3.95 µM | HT-29 2.48 µM

C=C(C)C[C@H](Sc1nc2ccccc2s1)[C@H](C)O
inactive: U-251 37.5 µM | SK-MEL-2 23.1 µM | MDA-MB-435 37.2 µM | UO-31 69 µM | COLO 205 35.5 µM | SN12C 45.4 µM | Hs-578T 41.3 µM | OVCAR-3 18.8 µM | SW-620 45.4 µM | HOP-92 24.6 µM | HCT-116 39.4 µM | SK-MEL-5 18.1 µM | SR 30.3 µM | A549 50.5 µM | UACC-62 52.7 µM | SF-295 39.5 µM | LOX IMVI 39.4 µM | NCI/ADR-RES 33 µM | NCI-H23 31 µM | HT-29 31.1 µM

COC(=O)CCC(NC(=O)OC(C)(C)C)C(=O)NC(Cc1ccc([N+](=O)[O-])cc1)C(=O)NC(CCC(=O)OC)C(=O)OC (stereo not drawn) (Boc-Glu(OMe)-[Phe(4-NO2)]-Glu(OMe)-OMe; configuration not given here)
inactive: SK-MEL-2 > 100 µM | MDA-MB-435 > 100 µM | UO-31 > 100 µM | COLO 205 > 100 µM | SN12C 51.9 µM | Hs-578T > 100 µM | OVCAR-3 > 100 µM | SW-620 > 100 µM | HOP-92 > 100 µM | HCT-116 > 100 µM | SK-MEL-5 > 100 µM | SR 28.8 µM | A549 > 100 µM | UACC-62 > 100 µM | SF-295 > 100 µM | LOX IMVI 26.6 µM | NCI/ADR-RES > 100 µM | NCI-H23 > 100 µM | HT-29 87.3 µM

Source: ChEMBL document CHEMBL1201862, “PubChem BioAssay data set” (2004)
